Measurements published in paper PMC4508061, “Selectivity Profiling and Biological Activity of Novel β-Carbolines as Potent and Selective DYRK1 Kinase Inhibitors” (PLoS ONE, 2015).

Columns and labels:
Experiment in all cases: ProQinase radiometric kinase panel
Conditions in all cases: mean of 2 exp.
[1] = target: ALK (Homo sapiens, UniProt Q9UM73)
[2] = target: RPS6KA1 (Homo sapiens, UniProt Q15418)
[3] = target: PRKG1 (Homo sapiens, UniProt Q13976)
[4] = target: CAMK2D (Homo sapiens, UniProt Q13557)
[5] = target: RPS6KA5 (Homo sapiens, UniProt O75582)
[6] = target: MARK1 (Homo sapiens, UniProt Q9P0L2)
[7] = target: RPS6KA2 (Homo sapiens, UniProt Q15349)
[8] = target: LTK (Homo sapiens, UniProt P29376)
[9] = target: TIE2 (Homo sapiens, UniProt Q02763)
[10] = target: GRK7 (Homo sapiens, UniProt Q8WTQ7)
[11] = target: AKT2 (Homo sapiens, UniProt P31751)
[12] = target: TTK (Homo sapiens, UniProt P33981)
[13] = target: TLK2 (Homo sapiens, UniProt Q86UE8)
[14] = target: CAMK1D (Homo sapiens, UniProt Q8IU85)
[15] = target: BRK (Homo sapiens, UniProt Q13882)
[16] = target: MEK1 (Homo sapiens, UniProt Q02750)
[17] = target: CDK3/CycE1 (Homo sapiens, UniProt Q00526)
[18] = target: EIF2AK2 (Homo sapiens, UniProt P19525)
[19] = target: TAOK3 (Homo sapiens, UniProt Q9H2K8)
[20] = target: RET (Homo sapiens, UniProt P07949)
[21] = target: DMPK (Homo sapiens, UniProt Q09013)
[22] = target: CSK (Homo sapiens, UniProt P41240)
[23] = target: CDK1/CycB1 (Homo sapiens, UniProt P06493)
[24] = target: PHKG2 (Homo sapiens, UniProt P15735)
[25] = target: CK1-gamma1 (Homo sapiens, UniProt Q9HCP0)
[26] = target: Aurora-A (Homo sapiens, UniProt O14965)
[27] = target: TBK1 (Homo sapiens, UniProt Q9UHD2)
[28] = target: RIPK5 (Homo sapiens, UniProt Q6XUX3)
[29] = target: ROCK2 (Homo sapiens, UniProt O75116)
[30] = target: PHKG1 (Homo sapiens, UniProt Q16816)
[31] = target: PLK3 (Homo sapiens, UniProt Q9H4B4)
[32] = target: SGK2 (Homo sapiens, UniProt Q9HBY8)
[33] = target: ACV-R1 (Homo sapiens, UniProt Q04771)
[34] = target: MYLK2 (Homo sapiens, UniProt Q9H1R3)
[35] = target: HRI (Homo sapiens, UniProt Q9BQI3)
[36] = target: ACV-RL1 (Homo sapiens, UniProt P37023)
[37] = target: NEK4 (Homo sapiens, UniProt P51957)
[38] = target: p38-beta (Homo sapiens, UniProt Q15759)
[39] = target: MEK2 (Homo sapiens, UniProt P36507)
MEK2, sequence (P36507 whole entry): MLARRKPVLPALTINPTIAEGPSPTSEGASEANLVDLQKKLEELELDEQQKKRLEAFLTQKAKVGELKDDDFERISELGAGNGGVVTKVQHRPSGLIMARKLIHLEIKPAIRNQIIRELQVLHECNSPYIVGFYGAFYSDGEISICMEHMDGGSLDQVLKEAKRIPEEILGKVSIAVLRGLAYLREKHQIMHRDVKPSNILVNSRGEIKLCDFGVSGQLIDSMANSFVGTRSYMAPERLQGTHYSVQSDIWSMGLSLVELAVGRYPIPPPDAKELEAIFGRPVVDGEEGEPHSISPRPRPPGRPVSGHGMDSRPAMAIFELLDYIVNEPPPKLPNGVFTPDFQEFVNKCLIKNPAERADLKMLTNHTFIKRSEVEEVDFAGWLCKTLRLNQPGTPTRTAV

TIE2, sequence (Q02763 23-1124): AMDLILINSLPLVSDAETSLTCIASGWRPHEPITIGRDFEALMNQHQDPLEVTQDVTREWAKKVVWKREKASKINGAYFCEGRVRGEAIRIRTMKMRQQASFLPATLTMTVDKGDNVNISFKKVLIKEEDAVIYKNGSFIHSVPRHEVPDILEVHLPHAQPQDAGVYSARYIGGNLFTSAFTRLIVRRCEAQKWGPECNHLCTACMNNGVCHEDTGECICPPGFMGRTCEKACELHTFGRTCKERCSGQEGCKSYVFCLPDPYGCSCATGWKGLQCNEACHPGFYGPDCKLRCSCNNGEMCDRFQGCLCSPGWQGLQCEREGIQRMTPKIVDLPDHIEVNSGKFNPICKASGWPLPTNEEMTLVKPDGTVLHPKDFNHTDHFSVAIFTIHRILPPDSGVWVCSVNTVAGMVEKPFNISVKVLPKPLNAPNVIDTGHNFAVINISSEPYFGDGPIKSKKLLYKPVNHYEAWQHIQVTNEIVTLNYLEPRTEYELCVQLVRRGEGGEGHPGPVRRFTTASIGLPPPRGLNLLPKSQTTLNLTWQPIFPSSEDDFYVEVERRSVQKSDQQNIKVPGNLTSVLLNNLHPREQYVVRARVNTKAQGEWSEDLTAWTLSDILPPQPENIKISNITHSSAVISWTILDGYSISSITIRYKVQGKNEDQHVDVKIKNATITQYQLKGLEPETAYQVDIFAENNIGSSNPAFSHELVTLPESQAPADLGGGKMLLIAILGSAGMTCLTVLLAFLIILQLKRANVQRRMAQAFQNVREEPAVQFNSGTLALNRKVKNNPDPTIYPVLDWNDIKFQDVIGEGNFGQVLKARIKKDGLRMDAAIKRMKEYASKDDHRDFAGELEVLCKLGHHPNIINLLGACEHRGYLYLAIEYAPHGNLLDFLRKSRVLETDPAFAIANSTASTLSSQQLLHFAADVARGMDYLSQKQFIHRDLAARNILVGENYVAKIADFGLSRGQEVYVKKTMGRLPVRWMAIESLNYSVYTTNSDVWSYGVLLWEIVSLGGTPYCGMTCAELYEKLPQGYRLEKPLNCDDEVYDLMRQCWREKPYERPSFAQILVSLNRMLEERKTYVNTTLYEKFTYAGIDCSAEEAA
TLK2, sequence (Q86UE8 whole entry): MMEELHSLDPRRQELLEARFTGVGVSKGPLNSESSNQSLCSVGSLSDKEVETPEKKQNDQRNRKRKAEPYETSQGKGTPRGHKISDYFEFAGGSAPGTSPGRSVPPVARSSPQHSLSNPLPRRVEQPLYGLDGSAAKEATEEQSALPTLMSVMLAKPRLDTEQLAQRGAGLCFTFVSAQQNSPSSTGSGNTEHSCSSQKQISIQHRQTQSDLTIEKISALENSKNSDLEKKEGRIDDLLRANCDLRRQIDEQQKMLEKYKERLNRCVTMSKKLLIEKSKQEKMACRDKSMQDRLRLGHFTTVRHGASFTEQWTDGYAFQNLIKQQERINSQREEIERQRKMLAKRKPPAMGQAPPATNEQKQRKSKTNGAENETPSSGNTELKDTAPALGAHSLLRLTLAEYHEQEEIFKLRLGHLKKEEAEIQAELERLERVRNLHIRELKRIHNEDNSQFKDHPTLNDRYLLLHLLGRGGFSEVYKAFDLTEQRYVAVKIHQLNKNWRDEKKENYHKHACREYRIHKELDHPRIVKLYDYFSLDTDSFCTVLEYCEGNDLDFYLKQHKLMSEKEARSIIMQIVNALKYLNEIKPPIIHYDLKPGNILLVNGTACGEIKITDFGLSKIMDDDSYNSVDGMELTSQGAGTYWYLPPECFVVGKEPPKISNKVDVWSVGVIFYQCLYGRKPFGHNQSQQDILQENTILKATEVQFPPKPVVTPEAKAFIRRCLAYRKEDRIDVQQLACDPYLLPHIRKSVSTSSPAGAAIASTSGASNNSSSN
HRI, sequence (Q9BQI3 whole entry): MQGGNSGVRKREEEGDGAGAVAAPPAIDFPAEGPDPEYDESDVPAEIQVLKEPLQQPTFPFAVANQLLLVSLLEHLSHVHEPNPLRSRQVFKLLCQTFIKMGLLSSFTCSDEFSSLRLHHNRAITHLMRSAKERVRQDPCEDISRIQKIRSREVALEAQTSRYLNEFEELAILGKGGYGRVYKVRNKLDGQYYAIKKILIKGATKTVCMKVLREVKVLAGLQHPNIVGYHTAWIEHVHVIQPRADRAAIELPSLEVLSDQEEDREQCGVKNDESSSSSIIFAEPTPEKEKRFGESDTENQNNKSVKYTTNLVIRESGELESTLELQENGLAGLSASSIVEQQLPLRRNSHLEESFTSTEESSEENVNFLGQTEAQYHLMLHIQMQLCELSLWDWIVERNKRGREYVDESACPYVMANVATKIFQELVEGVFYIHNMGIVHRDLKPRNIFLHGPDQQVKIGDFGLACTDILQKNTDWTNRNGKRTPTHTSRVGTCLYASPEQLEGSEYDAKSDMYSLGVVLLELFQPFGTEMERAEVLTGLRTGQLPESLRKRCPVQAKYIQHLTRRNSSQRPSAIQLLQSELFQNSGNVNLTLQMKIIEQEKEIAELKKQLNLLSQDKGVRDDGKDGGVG
LTK, sequence (P29376 17-864): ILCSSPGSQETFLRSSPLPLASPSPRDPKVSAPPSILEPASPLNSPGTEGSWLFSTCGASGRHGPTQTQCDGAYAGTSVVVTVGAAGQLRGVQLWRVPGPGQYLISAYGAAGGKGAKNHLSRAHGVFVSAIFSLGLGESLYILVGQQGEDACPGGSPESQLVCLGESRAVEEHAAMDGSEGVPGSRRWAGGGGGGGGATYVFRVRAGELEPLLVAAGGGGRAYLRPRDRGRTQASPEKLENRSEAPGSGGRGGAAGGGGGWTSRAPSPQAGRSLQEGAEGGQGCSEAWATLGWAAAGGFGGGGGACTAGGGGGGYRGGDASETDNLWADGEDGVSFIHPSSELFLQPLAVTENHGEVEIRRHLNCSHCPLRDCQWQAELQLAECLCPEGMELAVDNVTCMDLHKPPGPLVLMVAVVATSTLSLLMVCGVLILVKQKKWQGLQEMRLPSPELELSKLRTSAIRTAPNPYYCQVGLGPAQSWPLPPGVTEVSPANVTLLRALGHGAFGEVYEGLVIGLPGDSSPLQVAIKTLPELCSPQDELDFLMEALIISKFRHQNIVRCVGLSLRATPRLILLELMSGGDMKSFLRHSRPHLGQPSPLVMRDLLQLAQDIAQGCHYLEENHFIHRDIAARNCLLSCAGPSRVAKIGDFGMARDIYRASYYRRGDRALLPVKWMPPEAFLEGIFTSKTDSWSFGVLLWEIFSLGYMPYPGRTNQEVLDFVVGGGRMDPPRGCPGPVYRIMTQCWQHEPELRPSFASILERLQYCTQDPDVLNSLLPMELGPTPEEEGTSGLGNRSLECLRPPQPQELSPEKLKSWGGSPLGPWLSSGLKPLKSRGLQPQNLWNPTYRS
BRK, sequence (Q13882 whole entry): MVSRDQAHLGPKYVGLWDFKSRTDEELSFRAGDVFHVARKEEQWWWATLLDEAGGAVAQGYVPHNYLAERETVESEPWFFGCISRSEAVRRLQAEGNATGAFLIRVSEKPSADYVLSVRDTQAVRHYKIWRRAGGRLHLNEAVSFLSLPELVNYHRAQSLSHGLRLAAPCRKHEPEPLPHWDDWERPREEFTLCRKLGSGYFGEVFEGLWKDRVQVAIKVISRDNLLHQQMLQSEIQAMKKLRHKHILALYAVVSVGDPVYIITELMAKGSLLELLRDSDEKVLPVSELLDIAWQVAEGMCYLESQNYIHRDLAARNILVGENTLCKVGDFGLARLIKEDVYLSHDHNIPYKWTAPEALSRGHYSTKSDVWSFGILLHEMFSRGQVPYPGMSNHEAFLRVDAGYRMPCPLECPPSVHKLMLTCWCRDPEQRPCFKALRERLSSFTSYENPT
EIF2AK2, sequence (P19525 whole entry): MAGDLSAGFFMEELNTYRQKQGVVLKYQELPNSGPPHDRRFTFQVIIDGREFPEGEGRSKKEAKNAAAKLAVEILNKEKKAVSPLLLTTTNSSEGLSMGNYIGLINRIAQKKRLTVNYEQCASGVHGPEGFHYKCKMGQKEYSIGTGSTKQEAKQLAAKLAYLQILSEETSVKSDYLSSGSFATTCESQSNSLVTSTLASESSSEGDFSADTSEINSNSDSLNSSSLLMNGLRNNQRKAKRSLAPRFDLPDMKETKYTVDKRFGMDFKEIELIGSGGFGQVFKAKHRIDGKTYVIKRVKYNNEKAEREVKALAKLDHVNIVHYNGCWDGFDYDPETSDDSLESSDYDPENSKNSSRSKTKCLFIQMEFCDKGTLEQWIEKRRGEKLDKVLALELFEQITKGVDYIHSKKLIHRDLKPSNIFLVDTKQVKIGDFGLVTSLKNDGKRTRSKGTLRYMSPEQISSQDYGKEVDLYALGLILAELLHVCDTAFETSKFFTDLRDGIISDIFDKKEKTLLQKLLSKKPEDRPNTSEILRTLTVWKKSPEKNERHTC

Question: How did the “residual activity at 1 µM, Mean” value [1] turn out when `COc1ccc2c3ccnc(Cl)c3n(CC#N)c2c1` [AnnH75] was run?
Answer: 98 % of control

Question: What about the “residual activity at 1 µM, Mean” value [2] of the same compound?
Answer: 63 % of control

Question: And the “residual activity at 1 µM, Mean” value [3]?
Answer: 87 % of control

Question: And the “residual activity at 1 µM, Mean” value [4]?
Answer: 87 % of control

Question: What about the “residual activity at 1 µM, Mean” value [5] of the same compound?
Answer: 96 % of control

Question: What about the “residual activity at 1 µM, Mean” value [6] of the same compound?
Answer: 101 % of control

Question: And the “residual activity at 1 µM, Mean” value [7]?
Answer: 97 % of control

Question: What about the “residual activity at 1 µM, Mean” value [8] of the same compound?
Answer: 99 % of control

Question: And the “residual activity at 1 µM, Mean” value [9]?
Answer: 84 % of control

Question: And the “residual activity at 1 µM, Mean” value [10]?
Answer: 103 % of control

Question: And the “residual activity at 1 µM, Mean” value [11]?
Answer: 106 % of control

Question: What about the “residual activity at 1 µM, Mean” value [12] of the same compound?
Answer: 91 % of control

Question: What about the “residual activity at 1 µM, Mean” value [13] of the same compound?
Answer: 108 % of control

Question: And the “residual activity at 1 µM, Mean” value [14]?
Answer: 102 % of control

Question: And the “residual activity at 1 µM, Mean” value [15]?
Answer: 97 % of control

Question: What about the “residual activity at 1 µM, Mean” value [16] of the same compound?
Answer: 72 % of control

Question: What about the “residual activity at 1 µM, Mean” value [17] of the same compound?
Answer: 94 % of control

Question: What about the “residual activity at 1 µM, Mean” value [18] of the same compound?
Answer: 95 % of control

Question: And the “residual activity at 1 µM, Mean” value [19]?
Answer: 103 % of control

Question: And the “residual activity at 1 µM, Mean” value [20]?
Answer: 89 % of control

Question: And the “residual activity at 1 µM, Mean” value [21]?
Answer: 101 % of control

Question: And the “residual activity at 1 µM, Mean” value [22]?
Answer: 94 % of control

Question: What about the “residual activity at 1 µM, Mean” value [23] of the same compound?
Answer: 81 % of control

Question: And the “residual activity at 1 µM, Mean” value [24]?
Answer: 94 % of control

Question: And the “residual activity at 1 µM, Mean” value [25]?
Answer: 92 % of control

Question: And the “residual activity at 1 µM, Mean” value [26]?
Answer: 89 % of control

Question: And the “residual activity at 1 µM, Mean” value [27]?
Answer: 94 % of control

Question: What about the “residual activity at 1 µM, Mean” value [28] of the same compound?
Answer: 91 % of control

Question: And the “residual activity at 1 µM, Mean” value [29]?
Answer: 79 % of control

Question: What about the “residual activity at 1 µM, Mean” value [30] of the same compound?
Answer: 91 % of control

Question: What about the “residual activity at 1 µM, Mean” value [31] of the same compound?
Answer: 96 % of control

Question: And the “residual activity at 1 µM, Mean” value [32]?
Answer: 99 % of control

Question: And the “residual activity at 1 µM, Mean” value [33]?
Answer: 93 % of control

Question: What about the “residual activity at 1 µM, Mean” value [34] of the same compound?
Answer: 90 % of control

Question: And the “residual activity at 1 µM, Mean” value [35]?
Answer: 101 % of control

Question: And the “residual activity at 1 µM, Mean” value [36]?
Answer: 91 % of control

Question: What about the “residual activity at 1 µM, Mean” value [37] of the same compound?
Answer: 98 % of control

Question: What about the “residual activity at 1 µM, Mean” value [38] of the same compound?
Answer: 105 % of control

Question: What about the “residual activity at 1 µM, Mean” value [39] of the same compound?
Answer: 37 % of control
